# Laboratory results: patent US10106534B2 (CELGENE QUANTICEL RESEARCH, INC., priority 2014, dated 2018)
# Tests used:
# JMJD2C = JMJD2C (Homo sapiens (Human), UniProt Q9H3R0); test: In vitro enzyme inhibition assay for JMJD2C activity (TR-FRET); assay type: biochemical
# How it was run: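 Demethylation product H3K9me2 quantified by TR-FRET ratio 665/615 after EDTA stop and 1 h with Eu-anti-H3K9me2 and streptavidin-APC; IC50 by curve fit. Reaction: 0.3 nM JMJD2C (AA 2-372, baculovirus), 2 μM α-ketoglutarate, 300 nM biotin-H3K9me3 peptide, pH 7.3 HEPES with Fe(II)/ascorbate, 30 min room temperature.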
# JMJD3 = JMJD3 (Homo sapiens, UniProt O15054); test: In vitro enzyme inhibition assay for JMJD3 activity (TR-FRET); assay type: biochemical
# Experimental: This assay determines the ability of a test compound to inhibit JMJD3 demethylase activity.
# The enzymatic assay of JMJD3 activity is based upon Time Resolved-Fluorescence Resonance Energy Transfer (TR-FRET) detection. […] Reaction product was determined quantitatively by TR-FRET after the addition of detection reagent Phycolink Streptavidin-allophycocyanin (Prozyme) and Europium-anti-di-methylated histone H3 lysine 27 (H3K27me2) antibody (PerkinElmer) in the presence of 5 mM EDTA in LANCE detection buffer (PerkinElmer) at a final concentration of 50 nM and 1 nM, respectively.
# The reaction mixture was incubated at room temperature for 30 minutes, and terminated by the addition of 6 μL of 5 mM EDTA in LANCE detection buffer containing 100 nM Phycolink Streptavidin-allophycocyanin and 2 nM Europium-anti-H3K27me2 antibody.
# [1] = tested on: KYSE-150 esophageal carcinoma cell line; test: In vitro cell-based assay: cellular proliferation via BrdU incorporation (ELISA); parameters: species or system human; conditions: Homo sapiens, KYSE-150, 168 hours compound incubation
# How it was run: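 BrdU incorporation during S-phase, detected colorimetrically at 450 nm by peroxidase ELISA, measured proliferation after 168 h compound exposure.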
# Sequence of JMJD2C (Q9H3R0 2-372): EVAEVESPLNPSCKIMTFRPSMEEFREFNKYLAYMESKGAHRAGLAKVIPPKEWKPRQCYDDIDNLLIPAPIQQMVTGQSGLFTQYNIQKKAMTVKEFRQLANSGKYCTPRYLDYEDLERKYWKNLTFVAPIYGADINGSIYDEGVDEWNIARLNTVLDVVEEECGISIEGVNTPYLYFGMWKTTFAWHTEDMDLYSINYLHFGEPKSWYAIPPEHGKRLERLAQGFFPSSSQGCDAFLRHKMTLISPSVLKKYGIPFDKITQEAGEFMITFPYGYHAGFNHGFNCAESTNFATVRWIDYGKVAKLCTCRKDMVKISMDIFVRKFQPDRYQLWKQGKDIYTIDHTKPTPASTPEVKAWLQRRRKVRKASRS
IC50 (JMJD2C),IC50 (JMJD3),IC50 [1],Molecule
100 to 1000 nM,1000 to 10000 nM,≤ 100 nM,"CN(c1ccc2c(c1)OCC[C@H]2CNc1cnccc1C(=O)O)c1ccc(C2CC2)cn1 [Example 153, 3-({[(4R)-7-[(5-cyclopropylpyridin-2-yl)(methyl)amino]-3,4-dihydro-2H-1-benzopyran-4-yl]methyl}amino)pyridine-4-carboxylic acid]"
100 to 1000 nM,1000 to 10000 nM,≤ 100 nM,"Cc1ccc(N(C)c2ccc3c(c2)CCC[C@H]3CNc2cnccc2C(=O)O)nc1 [Example 122, 3-({[(1R)-6-[methyl(5-methylpyridin-2-yl)amino]-1,2,3,4-tetrahydronaphthalen-1-yl]methyl}amino)pyridine-4-carboxylic acid]"
100 to 1000 nM,1000 to 10000 nM,–,"CN(c1ccc(OC(F)(F)F)cc1)c1ccc2c(c1)OCC[C@H]2CNc1cnccc1C(=O)O [Example 182, 3-({[(4R)-7-{methyl[4-(trifluoromethoxy)phenyl]amino}-3,4-dihydro-2H-1-benzopyran-4-yl]methyl}amino)pyridine-4-carboxylic acid]"
100 to 1000 nM,1000 to 10000 nM,≤ 100 nM,"O=C(O)c1ccncc1NC[C@@H]1CCOc2cc(-c3ccccc3Cl)ccc21 [Example 40, 3-({[(4R)-7-(2-chlorophenyl)-3,4-dihydro-2H-1-benzopyran-4-yl]methyl}amino)pyridine-4-carboxylic acid]"
100 to 1000 nM,1000 to 10000 nM,≤ 100 nM,"CN(C)c1ccc(N(C)c2ccc3c(c2)CCC[C@H]3CNc2cnccc2C(=O)O)cc1 [Example 160, 3-({[(1R)-6-{[4-(dimethylamino)phenyl](methyl)amino}-1,2,3,4-tetrahydronaphthalen-1-yl]methyl}amino)pyridine-4-carboxylic acid]"
100 to 1000 nM,1000 to 10000 nM,≤ 100 nM,"Cc1ccc(Oc2ccc3c(c2)CCC[C@H]3CNc2cnccc2C(=O)O)c(F)c1 [Example 66, 3-({[(1R)-6-(2-fluoro-4-methylphenoxy)-1,2,3,4-tetrahydronaphthalen-1-yl]methyl}amino)pyridine-4-carboxylic acid]"
1000 to 10000 nM,100 to 1000 nM,–,"O=C(O)c1ccncc1NC[C@H]1CCOc2cc(Sc3ccc(F)cc3)ccc21 [Example 54, 3-({[(4S)-7-[(4-fluorophenyl)sulfanyl]-3,4-dihydro-2H-1-benzopyran-4-yl]methyl}amino)pyridine-4-carboxylic acid]"
1000 to 10000 nM,100 to 1000 nM,–,"Cc1cccc(-c2ccc3c(c2)OCC[C@@H]3CNc2cnccc2C(=O)O)c1 [Example 29, 3-({[(4S)-7-(3-methylphenyl)-3,4-dihydro-2H-1-benzopyran-4-yl]methyl}amino)pyridine-4-carboxylic acid]"
1000 to 10000 nM,< 100 nM,–,"O=C(O)c1ccncc1NC[C@H]1CCOc2cc(-c3ccsc3)ccc21 [Example 33, 3-({[(4S)-7-(thiophen-3-yl)-3,4-dihydro-2H-1-benzopyran-4-yl]methyl}amino)pyridine-4-carboxylic acid]"
1000 to 10000 nM,100 to 1000 nM,–,"O=C(O)c1ccncc1NC[C@H]1CCOc2cc(-c3ccccc3Cl)ccc21 [Example 39, 3-({[(4S)-7-(2-chlorophenyl)-3,4-dihydro-2H-1-benzopyran-4-yl]methyl}amino)pyridine-4-carboxylic acid]"

# More lines, now with the values behind:
Molecule,IC50 (JMJD2C),IC50 (JMJD3),IC50 [1]
"O=C(O)c1ccncc1NC[C@@H]1CCOc2cc(Sc3ccc(F)cc3)ccc21 [Example 55, 3-({[(4R)-7-[(4-fluorophenyl)sulfanyl]-3,4-dihydro-2H-1-benzopyran-4-yl]methyl}amino)pyridine-4-carboxylic acid]",100 to 1000 nM,1000 to 10000 nM,100 to 1000 nM
"Cc1noc(C)c1N(C)c1ccc2c(c1)CCC[C@H]2CNc1cnccc1C(=O)O [Example 166, 3-({[(1R)-6-[(dimethyl-1,2-oxazol-4-yl)(methyl)amino]-1,2,3,4-tetrahydronaphthalen-1-yl]methyl}amino)pyridine-4-carboxylic acid]",100 to 1000 nM,1000 to 10000 nM,> 10000 nM
"CN(c1ccc2c(c1)CCC[C@H]2CNc1cnccc1C(=O)O)c1ccccn1 [Example 11, 3-({[(1R)-6-[methyl(pyridin-2-yl)amino]-1,2,3,4-tetrahydronaphthalen-1-yl]methyl}amino)pyridine-4-carboxylic acid]",100 to 1000 nM,1000 to 10000 nM,≤ 100 nM
"CN(c1ccc(F)cc1)c1ccc2c(c1)OCC[C@H]2CNc1cnccc1C(=O)O [Example 21, 3-({[(4R)-7-[(4-fluorophenyl)(methyl)amino]-3,4-dihydro-2H-1-benzopyran-4-yl]methyl}amino)pyridine-4-carboxylic acid]",100 to 1000 nM,1000 to 10000 nM,≤ 100 nM
"CN(c1ccc2c(c1)CCC[C@H]2CNc1cnccc1C(=O)O)c1cnn(C)c1 [Example 159, 3-({[(1R)-6-[methyl(1-methyl-1H-pyrazol-4-yl)amino]-1,2,3,4-tetrahydronaphthalen-1-yl]methyl}amino)pyridine-4-carboxylic acid]",100 to 1000 nM,1000 to 10000 nM,1000 to 10000 nM
"CN(c1ccccc1)c1ccc2c(c1)CCC[C@H]2CNc1nnccc1C(=O)O [Example 191, 3-({[(1R)-6-[methyl(phenyl)amino]-1,2,3,4-tetrahydronaphthalen-1-yl]methyl}amino)pyridazine-4-carboxylic acid]",100 to 1000 nM,1000 to 10000 nM,≤ 100 nM
"O=C(O)c1ccncc1NC[C@@H]1CCOc2cc(-c3ccccc3O)ccc21 [Example 138, 3-({[(4R)-7-(2-hydroxyphenyl)-3,4-dihydro-2H-1-benzopyran-4-yl]methyl}amino)pyridine-4-carboxylic acid]",100 to 1000 nM,1000 to 10000 nM,–
"Cc1sccc1-c1ccc2c(c1)OCC[C@@H]2CNc1cnccc1C(=O)O [Example 36, 3-({[(4S)-7-(2-methylthiophen-3-yl)-3,4-dihydro-2H-1-benzopyran-4-yl]methyl}amino)pyridine-4-carboxylic acid]",1000 to 10000 nM,100 to 1000 nM,–
"CN(c1ccccc1)c1ccc2c(c1)CCCC2CNc1cnccc1C(=O)O (stereo in doubt) [Example 2, 3-({[(1S)-6-[methyl(phenyl)amino]-1,2,3,4-tetrahydronaphthalen-1-yl]methyl}amino)pyridine-4-carboxylic acid]",100 to 1000 nM,1000 to 10000 nM,–
"O=C(O)c1ccncc1NC[C@H]1CCOc2cc(Sc3cccc(F)c3)ccc21 [Example 52, 3-({[(4S)-7-[(3-fluorophenyl)sulfanyl]-3,4-dihydro-2H-1-benzopyran-4-yl]methyl}amino)pyridine-4-carboxylic acid]",1000 to 10000 nM,100 to 1000 nM,–
"Cc1ccc(-c2ccc3c(c2)OCC[C@@H]3CNc2cnccc2C(=O)O)cc1 [Example 31, 3-({[(4S)-7-(4-methylphenyl)-3,4-dihydro-2H-1-benzopyran-4-yl]methyl}amino)pyridine-4-carboxylic acid]",1000 to 10000 nM,100 to 1000 nM,–
"3-({[(1R)-6-[benzyl(methyl)amino]-1,2,3,4-tetrahydronaphthalen-1-yl]methyl}amino)pyridine-4-carboxylic acid [Example 130]",100 to 1000 nM,1000 to 10000 nM,–
